Test results: patent publication US20230364101A1, “DICLOFENAC PRODRUG AND USE OF THE SAME” (Pumont Biotech Co., Ltd., priority 2022, published 2023)
≈ marks a conversion by molar mass, not a printed value.

Assays:
[1] = Solubility test using potassium phosphate buffer at pH 7.4; assay type: physicochemical; conditions: 5 mg prodrug in 10 mL potassium phosphate buffer pH 7.4, 37° C., HPLC-UV 254 nm; for solubility at 24 h: potassium phosphate buffer, 37 °C, pH 7.4, aqueous buffer, thermodynamic from solid, read-out: Solubility after 24 hours
Method: First, a respective one of the diclofenac prodrugs of EX5 to EX8 and EX12 was mixed with a potassium phosphate buffer (including 50 mM potassium phosphate, sodium chloride, and water; pH 7.4) and then placed in a constant temperature oscillator at 37° C. for 24 hours so as to dissolve the diclofenac prodrug, thereby obtaining a test sample. After that, the test sample was filtered through a filter having a pore size of 0.22 μm to obtain a filtrate. Next, the filtrate was mixed with acetonitrile in equal amounts, and then subjected to oscillation and centrifugation performed in sequence. The resultant supernatant fraction was subjected to HPLC with UV detection under a wavelength of 254 nm.

[2] = Determination of particle size (D90) after grinding; assay type: physicochemical; conditions: after grinding with mortar and homogenizer in 0.125 wt % Tween 20; initial particle size about 60 μm
Description: The solid particles of the diclofenac prodrugs of EX5 and EX8 were subjected to grinding in order to be formulated into a soluble liquid suspension suitable for intraarticular injection. In general, first, the solid particles of diclofenac prodrugs and deionized water were mixed to form a liquid suspension. Next, the liquid suspension was ground using a homogenizer and then subjected to oscillation treatment to obtain a test sample. Then, the test sample was subjected to determination of particle size distribution. Afterwards, the test sample includes solid particles having a size ranging from 20 μm to 30 μm was centrifuged and lyophilized, followed by determination of purity using HLPC. […]
(§1) To be specific, 100 mg of the diclofenac prodrug of EX5 having an initial particle size of about 60 μm was manually ground using a mortar, and then mixed with 2.0 mL of an aqueous solution containing 0.125 wt % of Tween 20 and deionized water, so as to obtain a slurry. […] The thus determined average particle size D90 of the diclofenac prodrug of EX5 was 8.4 μm.
as §1, with “Meanwhile, 102” for “To be specific, 100”, “EX8” for “EX5”, “saline,” for “deionized water,”, “18.2” for “8.4”

Compound | Solubility after 24 hours [1] [µg/mL] | Solubility after 24 hours ([1]; listed as EX5 (crystalline)) [µg/mL] | average particle size D90 [2] [μm] | solubility at 24 h [1] [µg/mL]
O=C(Cc1ccccc1Nc1c(Cl)cccc1Cl)OCOC(=O)N1CCOCC1 [EX5 (amorphous), (2-(2-((2,6-dichlorophenyl)amino)phenyl)acetoxy)methyl morpholine-4-carboxylate] | 4.24 (≈ 9.65 µM) |  |  | 
O=C(Cc1ccccc1Nc1c(Cl)cccc1Cl)OCOC(=O)N1CCOCC1 [EX5, (2-(2-((2,6-dichlorophenyl)amino)phenyl)acetoxy)methyl morpholine-4-carboxylate] |  | 0.06 (≈ 0.137 µM) | 8.4 | 
CC1(C)OCC(COC(=O)OCOC(=O)Cc2ccccc2Nc2c(Cl)cccc2Cl)O1 (stereo not shown) [EX6, ((((2,2-dimethyl-1,3-dioxolan-4-yl)methoxy)carbonyl)oxy)methyl 2-(2-((2,6-dichlorophenyl)amino)phenyl)acetate] |  |  |  | 0.33 (≈ 0.681 µM)
O=C(Cc1ccccc1Nc1c(Cl)cccc1Cl)OCOC(=O)OCC(O)CO (stereo not shown) [EX7, (((2,3-dihydroxypropoxy)carbonyl)oxy)methyl 2-(2-((2,6-dichlorophenyl)amino)phenyl)acetate] |  |  |  | 269 (≈ 604 µM)
O=C(Cc1ccccc1Nc1c(Cl)cccc1Cl)OCOC(=O)OCCCO [EX8, (((3-hydroxypropoxy)carbonyl)oxy)methyl 2-(2-((2,6-dichlorophenyl)amino)phenyl)acetate] |  |  | 18.2 | 28.4 (≈ 66.4 µM)
